Experiments:
[1] = system: CEM cells; assay: Viability test (trypan blue); format: cell-based, Human; details: concentrations up to 10 mM
Protocol: CEM cells (3×10^5 cells/ml) were seeded and grown in the presence or absence of indicated concentrations of NACA. The medium was replaced and added new NACA after two days. After 48 and 96 hours, respectively, aliquots of the cells were harvested and combined with trypan blue dye before analyzed microscopically on a hemocytometer counting chamber. Blue cells were counted as nonviable and to estimate the amount of viable cells the amount of live cells was compared to the total amount of cells.

[2] = system: HIV-2 (ROD); assay: Inhibition of HIV-2 replication in CEM cells (giant cell / syncytia formation); format: cell-based; details: for EC50: concentration required to protect CEM cells against the cytopathogenicity of HIV by 50%, HIV-2 (ROD)
Protocol: (§1) CEM cells were suspended in fresh culture medium and infected with HIV-1 (IIIB) or HIV-2 (ROD) at 100 CCID50 per ml of cell suspension. 100 μl of the infected cell suspension were transferred to microplate wells, mixed with 100 μl of the appropriate dilutions of compounds, and further incubated at 37° C. After 4 days, giant cell formation was recorded microscopically and the number of giant cells was estimated as percentage of the number of giant cells present in the non-treated virus-infected cell cultures.

[3] = target: T1, recombinant HIV-1 protease (Human immunodeficiency virus type 1 group M subtype B, UniProt P04585); assay: Protease inhibition, SensoLyte HIV-1 protease assay kit; format: biochemical
T1 construct: Recombinant HIV-1 protease was purchased from AnaSpec Inc; purchased AnaSpec Inc
Protocol: The ability of NACA to inhibit the activity of recombinant HIV-1 protease was determined by a SensoLyte […] HIV-1 protease assay kit (AnaSpec Inc.) according to manufacturer's instructions: The compounds and the HIV-1 protease were added to a dark-bottom 96 well plate and the following controls were included: positive control (without NACA), inhibition control (pepstatin A), vehicle control (DMSO), NACA controls (to test for autofluorescence) and substrate control (assay buffer only). The plate as well as the HIV-1 protease substrate solution were incubated 15 minutes at 37° C. and 50 μl protease substrate was added to all wells. The fluorescence was measured at Ex/Em=490 nm/520 nm with a Varioskan Flash (Thermo Electron Corporation).
For the data shown in FIG. 13B, the HIV-1 protease together with NACA, a positive control (pepstatin A) or DMSO (vehicle control) were added to a dark-bottom 96 well plate. The plate as was incubated and protease substrate was added to all wells. The fluorescence was measured at Ex/Em=490 nm/520 nm. The value for the vector control (DMSO) was set to 100% in each individual repeat and all other values were normalized to this reference value. The data are means of three independent experiments; the error bars represent the SEM. P-values are indicated if significant (*: p<0.05; **: p<0.01; ***: p<0.001).

[4] = system: p24 in ACH-2 cells; assay: Production of viral particles (p24) in PMA-stimulated ACH-2 cells; format: cell-based, HIV; details: ACH-2 cells with PMA, 3 days, indicated amounts of NACA
Protocol: ACH-2 cells (1×10^6 cells/ml) were cultured with 100 nM PMA. After three days the cell culture supernatant was collected, cleared by centrifugation at 300×g for 10 min and passed through a 0.45 μm filter. p24 content was measured in an Architect i2000SR (Abbott Laboratories, Ill., USA) as a measurement for virus content and supernatant was either used directly or frozen at −80° C. for later usage.
(§2) To measure the infectivity of particles produced in the presence of the compounds, ACH-2 cells (1×10^6 cells/ml) were cultured with 100 nM PMA in the presence of the indicated amount of NACA or DMSO (negative control). After 3 days, the p24 content of the clarified supernatant (see 2.3 Virus expression) was measured. The supernatant was used for an infectivity test (see 2.4 Infectivity test) without the addition of any compound to the wells. The final dilution of the viral supernatant in the infectivity test was 1:100. A control experiment was performed, in which virus particles produced without the addition of NACA, were used for the infectivity test.
For the data in FIG. 15A, ACH-2 cells were cultured with […] in the presence of the indicated amount of NACA, DMSO (vector control=0 mM NACA) or no additive (control). After 3 days, the supernatant was clarified and the amount of p24 was measured by ELISA. […] P-values were calculated between the vehicle control and the individual treatments. […]

[5] = system: viral integration in TZM-b1 cells; assay: Infectivity assay in TZM-b1 cells (luciferase; viral integration); format: cell-based, HIV-1; details: 10 mM; 40 h
Protocol: 1×10^5 TZM-b1 cells were infected with diluted virus suspension (see 2.3 Virus expression) in a total of 0.2 ml DMEM medium in the presence of NACA, an inhibition control (nevirapin) or a vehicle control (DMSO). After 40 h at 37° C., the cells were assayed in a Luminoskan Ascent (Thermo Labsystems) for luciferase activity using the OneGlo luciferase assay system (Promega).
To determine additional targets of NACA inhibition within early stage processes of viral integration (viral entry to integration into the host genome), an infectivity assay was performed. TZM-b1 cells contain a luciferase gene that is under control of the HIV-1 promoter. Upon viral entry, transcription and integration into the host genome, luciferase is expressed and can convert the added substrate to the fluorescent product. The amount of measured product is quantitatively correlated to the amount of integrated virus in the test culture.
For the data in FIG. 14, TZM-b1 cells were infected with a diluted virus suspension in a total of 0.2 ml DMEM medium in the presence of the 25 μM or 10 mM NACA, an inhibition control (nevirapin) or a vehicle control (DMSO). Additionally, one well was treated with medium only instead of the virus dilution (no virus, negative control). After 40 h, the cells were assayed for luciferase activity. […] P-values were calculated between the vehicle control and the individual treatments. […]

[6] = system: CEM cells; assay: Cytostatic activity assay (cell proliferation, Coulter counter); format: cell-based; details: Homo sapiens, CCRF-CEM, 72 h, 50% inhibitory concentration of cell proliferation
Protocol: The cytostatic activity assay was performed in 96-well microliter plates. 5-7.5×10^4 cells and a given amount of the test compound were added to each well. The cells were allowed to proliferate for 72 h at 37° C. is a humidified CO2-controlled atmosphere. At the end of the incubation period, the cells were counted in a Coulter counter. The IC50 (half maximal inhibitory concentration) was defined as the concentration of the compound that inhibited cell proliferation by 50%.

[7] = target: T2, viral RT (Human immunodeficiency virus type 1 group M subtype B, UniProt P04585); assay: Reverse transcriptase (RT) inhibition, Lenti RT Activity kit; format: biochemical, HIV; details: 25 μM
T2 construct: endogenous in cells; host or cells: viral sample (virus-containing supernatant; probably from PMA-induced ACH-2 cells, inferred)
Protocol: The ability of the compounds to inhibit the activity of viral RT was determined by a Lenti RT Activity kit (Cavidi, Uppsala, Sweden) according to the manufacturer's instructions (protocol A): A poly-A plate was incubated with the reaction buffer for up to 1 h at 33° C. Afterwards, the viral sample together with NACA, an inhibition control (nevirapin) or a vehicle control (DMSO) were added and incubated overnight at 33° C. The plate was washed, exposed to the tracer for 90 min at 33° C. and washed again, before the substrate was added. The plate was incubated in the dark and subsequently read at 405 nm in a Multiskan RC (Labsystem).
For the data shown in FIG. 13A, a poly-A plate was incubated with the reaction buffer and subsequently, the viral sample (1:500 dilution) together with the NACA, nevirapin (inhibition control) or DMSO (vehicle control) was added and incubated overnight. The plate was exposed to the tracer and the substrate was added. The plate was incubated in the dark and read at 405 nm. The value for the vector control (DMSO) was set to 100% in each individual repeat and all other values were normalized to this reference value. The data shown in FIG. 13A are means of three independent experiments; the error bars represent the SEM. P-values are indicated if significant (*: p<0.05; **: p<0.01; ***: p<0.001).

[8] = system: Chronically HIV-infected U1 cells (monocytes); assay: Reverse transcriptase (RT) activity as readout of virion production in chronically HIV-infected U1 cells; format: cell-based
[9] = system: U1 cells; assay: U1 cell viability and proliferation ([3H]-thymidine incorporation); format: cell-based; details: HIV-infected U1 cells
Protocol: Chronically HIV-infected U1 cells (monocytes) were stimulated for 6 hours in the presence of NACA. Cytokines (IL-6, […]) or PMA were added and maintained in the cell cultures for 6 days, collecting supernatants daily. Cell viability and proliferation were checked by optical microscopy, and [3H]-thymidine incorporation, and calcein AM assay. Reverse transcriptase-polymerase chain reaction (RT-PCR) and reverse transcriptase (RT) activity assay as readout of virion production.

[10] = system: HIV-1; assay: HIV replication in acutely infected PBMC / lymphocytes; format: cell-based
Protocol: In some embodiments, the present invention relates to a method for inhibiting HIV replication. Data is attached reporting the results of an HIV study in lymphocytes with 100% block of replication at 20 mM concentration.
(§3) Peripheral blood mononuclear cells (PBMC) were acutely infected with HIV-1 and stimulated with NACA. Cell viability was measured in HIV infected PBMCs with varying concentrations of NACA.

[11] = system: HIV-1 (IIIB); assay: Inhibition of HIV-1 replication in CEM cells (giant cell / syncytia formation); format: cell-based; details: for EC50: concentration required to protect CEM cells against the cytopathogenicity of HIV by 50%, HIV-1 (IIIB)
Protocol: as §1

[12] = system: HIV infected PBMCs; assay: Cell viability of HIV infected PBMCs; format: cell-based; details: varying concentrations of NACA
Protocol: as §3

[13] = system: HIV particles; assay: Infectivity of viral particles produced in the presence of NACA (TZM-b1 luciferase); format: cell-based
Protocol: as §2
For the data in FIG. 15B, the clarified supernatant was further used for an infectivity test without the addition of any compound to the wells. The NACA amount stated in the graph refers to the amount in which the HIV producing cells were grown. TZM-b1 cells were infected with the diluted virus suspensions in a total of 0.2 ml DMEM (total dilution of virus supernatant: 1:100). After 40 h, the cells were assayed for luciferase activity. Additionally, a control experiment was performed, in which virus particles produced in the control set up, were used for the infectivity test. The same amount of NACA that could have been carried over with the virus containing supernatant in the original experiment was added to the infectivity test (final concentration: 1/100 of the indicated amount in the viral growth culture). The value for the control was set to 100% in each individual repeat and all other values were normalised these reference values. The data are means of three independent experiments; the error bars represent the SEM. P-values were calculated between the vehicle control and the individual treatments. P-values are indicated if significant (*: p<0.05; **: p<0.01; ***:p<0.001).

SMILES: CC(=O)N[C@@H](CS)C(N)=O
- CEM cells alive [1]: more than 99%
- Ratio IC50/EC50 (CEM) HIV-2 ([2]; CEM cells): 2
- EC50 ([2]; Human immunodeficiency virus 2, CCRF-CEM): ~230 µM
- EC50 [2]: 234 µM
- effect on viral protease activity ([3]; 25 μM): no effect
- effect on protease activity ([3]; 10 mM): significant effect
- amount of p24 [4]: not affected
- effect on viral integration [5]: more predominant effect
- IC50 [6]: ~564 µM
- effect on viral RT activity [7]: no effect
- reverse transcriptase activity ([8]; U1 cells activated with 1 ng/mL TNF-α or 10 ng/mL IL-6): significant reduction
- concentration effective in reducing HIV replication in activated U1 cells (RT activity) ([8]; U1 cells activated with 1 ng/mL TNT-α, 10 ng/mL IL-6 or 10 nM PMA): 1 to 10 µM
- relative amounts of reverse transcriptase activity ([8]; U1 cells, between days 3 and 5): did not alter
- concentration effective in reducing HIV replication in activated U1 cells ([8]; activated U1 cells): 10 to 333 µM
- U1 cell viability or proliferation as measured by [3H]-thymidine incorporation [9]: did not have a large effect
- effect on HIV replication ([10]; HIV infected PBMCs): inhibitor effect
- HIV replication inhibited ([10]; HIV infected PBMCs, concentrations of 10 mM and above): ~100%
- block of replication ([10]; lymphocytes, 20 mM concentration): 100%
- Ratio IC50/EC50 (CEM) HIV-1 ([11]; CEM cells): 3
- EC50 ([11]; Human immunodeficiency virus 1, IIIB, CCRF-CEM): ~230 µM
- EC50 [11]: 224 ± 86 µM
- cell viability [12]: did not affect cell viability
- effect on infectivity when NACA was added after the production of the viral particles (NACA added) ([13]; final concentration 1/100 of the indicated amount): not visible
- infectivity of the particles produced in the presence of NACA (NACA grown) ([13]; higher concentrations (5 mM to 10 mM)): decreased significantly
- infectivity of the particles produced in the presence of NACA (NACA grown) ([13]; low concentrations (0 mM to 1 mM)): auxiliary effect

Reference: US20200170968A1 (priority 2014, published 2020)
